Reference: ChEMBL document CHEMBL3352151, “In vitro and in vivo antibacterial evaluation and mechanistic study of ornithine based small cationic lipopeptides against antibiotic resistant clinical isolates” (Eur J Med Chem, 2014)
Values after ≈ are worked out from the molar mass of the structure shown.

Key:
[1] = test system: Pseudomonas aeruginosa; assay: Antibacterial activity against clinical isolates of Pseudomonas aeruginosa PGI/DML02084 after overnight incubation by microdilution broth assay; assay type: functional
[2] = Toxicity in albino mouse assessed as mortality at 150 mg/kg, iv; assay type: organism-based; set-up: dose 150 mg/kg, route intravenous; conditions: in vivo
[3] = Toxicity in albino mouse assessed as mortality at 60 mg/kg, iv; assay type: organism-based; set-up: dose 60 mg/kg, route intravenous; conditions: in vivo
[4] = test system: Escherichia coli; assay: Antibacterial activity against clinical isolates of Escherichia coli PGI/DML02250 after overnight incubation by microdilution broth assay; assay type: functional
[5] = test system: Mus musculus; assay: Toxicity in albino mouse assessed as mortality latency at 90 mg/kg, iv; assay type: organism-based; set-up: dose 90 mg/kg, route intravenous; conditions: in vivo
[6] = test system: Staphylococcus aureus; assay: Antibacterial activity against Staphylococcus aureus PGI/DML03149 infected in Swiss albino mouse assessed as log reduction at 5 mg/kg administered […] at 1 hr post infection relative to control; assay type: functional
[7] = Toxicity in albino mouse assessed as mortality at 90 mg/kg, iv; assay type: organism-based; set-up: dose 90 mg/kg, route intravenous; conditions: in vivo
[8] = test system: Haemophilus influenzae; assay: Antibacterial activity against clinical isolates of Haemophilus influenzae PGI/DML01751 after overnight incubation by microdilution broth assay; assay type: functional
[9] = test system: Escherichia coli; assay: Induction of membrane damage in Escherichia coli PGI/DML02292 at 3 ug/ml after 30 mins by propidium iodide staining-based flow cytometry relative to control; assay type: functional
[10] = test system: Streptococcus pneumoniae; assay: Antibacterial activity against clinical isolates of Streptococcus pneumoniae PGI/DML02468 after overnight incubation by microdilution broth assay; assay type: functional
[11] = test system: Pseudomonas aeruginosa; assay: Antibacterial activity against clinical isolates of streptomycin-resistant Pseudomonas aeruginosa PGI/DML01991 after overnight incubation by microdilution broth assay; assay type: functional
[12] = test system: Escherichia coli; assay: Induction of membrane damage in Escherichia coli PGI/DML02292 at 9 ug/ml after 30 mins by propidium iodide staining-based flow cytometry relative to control; assay type: functional
[13] = test system: Escherichia coli; assay: Induction of membrane damage in Escherichia coli PGI/DML02292 at 6 ug/ml after 30 mins by propidium iodide staining-based flow cytometry relative to control; assay type: functional
[14] = test system: Staphylococcus aureus; assay: Antibacterial activity against Staphylococcus aureus PGI/DML03149 infected in Swiss albino mouse assessed as log reduction at 1 mg/kg administered twice at 1 hr and 5 hrs post infection relative to control; assay type: functional
[15] = test system: Acinetobacter baumannii; assay: Antibacterial activity against clinical isolates of imipenem-resistant Acinetobacter baumannii GMCH/R-Imi003 after overnight incubation by microdilution broth assay; assay type: functional
[16] = test system: Escherichia coli; assay: Antibacterial activity against Escherichia coli PGI/DML02292 infected in Swiss albino mouse assessed as log reduction at 5 mg/kg administered twice at 1 hr and 5 hrs post infection relative to control; assay type: functional
[17] = test system: Mus musculus; assay: Toxicity in albino mouse assessed as syncope at 90 to 150 mg/kg, iv measured for 14 days; assay type: organism-based; set-up: dose 90-150 mg/kg, route intravenous; conditions: in vivo, 336 h

Question: Which results are given for `CCCCCCCCCCCCCC(=O)NC(CCCN)C(=O)NC(CCCN)C(=O)NC(CCCN)C(N)=O` (configuration not stated)?
Answer: MIC [1]: 1.5 µg/mL (≈ 2.63 µM); mortality [2]: 85%; mortality [3]: 25%; MIC [4]: 2 µg/mL (≈ 3.51 µM); Time [5]: > 96 h; FC [6]: 3.07; mortality [7]: 60%; MIC [8]: 4.5 µg/mL (≈ 7.9 µM); Activity [9]: 14%; MIC [10]: 4.5 µg/mL (≈ 7.9 µM); MIC [11]: 2.25 µg/mL (≈ 3.95 µM); Activity [12]: 79%; Activity [13]: 54%; FC [14]: 0.84; MIC [15]: 3.25 µg/mL (≈ 5.7 µM); FC [16]: 4.96; Activity [17]: Toxic
